Source: patent US20050175550A1, “Compositions for oral use” (priority 2000, published 2005)
≈ marks a conversion by molar mass, not a printed value.

How the values were obtained:
Assay type in all cases: cell-based
[1] = test system: Streptococcus pneumoniae ATCC6302; experiment: MIC by agar plate dilution method on standard strains (Example 3)
Experimental: (§1) Drug solutions at a concentration 10 times as high as the maximum applicable concentration were prepared as original solutions of test drugs given in Table 2 (as to solvents used for this purpose, reference should be made also to Table 2). Serial two-fold dilution series of the original solutions were prepared at desired stages, and 1 ml each of the diluted drug solutions was added to 9 ml of media given in Table 3 to prepare drug plates. […] • 1) Bacterial solutions stocked at −80° C. were inoculated on agar media (as to media used, reference should be made to Table 3), and then incubated at 37° C. overnight. When desired, subculturing was conducted once more on the same agar media (by overnight incubation at 37° C.). • 2) Colonies growing on the agar media were sampled by a platinum loop, suspended in liquid media (reference should be made to Table 3) and statically incubated at 37° C. for 18 hours (preculturing). • 3) Preculturing was continued up to McFarland 0.5 (McFarland 0.5=about 10^8 CFU/ml), and then the culture broths were diluted with Muellar Hinton Broth to make 10^6 CFU/ml. 5 μl each of the diluted solutions were inoculated on the above-mentioned drug plates by an inoculator Microplanter. […] Thus, bacterial solutions at about 10^8 CFU/ml can be easily prepared by use of McFarland 0.5. Bacterial solutions at such a turbidity are commercially available, but can be easily prepared.

[2] = test system: Streptococcus pyogenes ATCC12344; experiment: as above
Experimental: as §1

[3] = test system: Streptococcus pyogenes ATCC12385; experiment: as above
Experimental: as §1

[4] = test system: Enterococcus faecalis ATCC29247; experiment: as above
Experimental: as §1

[5] = test system: Klebsiella pneumoniae ATCC700603; experiment: as above
Experimental: as §1

[6] = test system: Streptococcus agalactiae ATCC13813; experiment: as above
Experimental: as §1

[7] = test system: Pseudomonas aeruginosa ATCC27853; experiment: as above
Experimental: as §1

[8] = test system: Haemophilus influenzae ATCC33391; experiment: as above
Experimental: as §1

[9] = test system: Staphylococcus aureus ATCC29247; experiment: as above
Experimental: as §1

[10] = test system: Haemophilus influenzae ATCC49766; experiment: as above
Experimental: as §1

[11] = test system: Moraxella (Branhamella) catarrhalis ATCC25238; experiment: as above
Experimental: as §1

[12] = test system: Streptococcus pneumoniae ATCC49619; experiment: as above
Experimental: as §1

[13] = test system: Serratia marcescens ATCC13880; experiment: as above
Experimental: as §1

[14] = test system: Streptococcus pneumoniae ATCC6303; experiment: as above
Experimental: as §1

[15] = test system: Enterococcus faecium ATCC19434; experiment: as above
Experimental: as §1

[16] = test system: Escherichia coli ATCC35218; experiment: as above
Experimental: as §1

[17] = test system: Streptococcus pneumoniae ATCC6301; experiment: as above
Experimental: as §1

[18] = test system: Streptococcus salivarius HHT; experiment: Minimum growth-inhibiting concentration on agar media (Example 2); conditions: S. salivarius HHT; Brain Heart Infusion, 5% CO2
Experimental: (§2) 3 ml of GAM broth (Nissui Medical) containing 5 μg/ml of hemin and 1 μg/ml of menadione was separately inoculated with one platinum loop each of subcultures of causative bacteria of periodontal disease, strains Porphyromonas gingivalis W83, W50, ATCC49417 and ATCC33277, strain Actinobacillus actinomycetemcomitans Y4, and strains Fusobacterium nucleatum ATCC10953 and ATCC25586, followed by incubation at 37° C. under anaerobic conditions (10% CO2, 10% H2 and 80% N2) overnight. Then, the resulting cultures were diluted to 10^−8, 10^−6, 10^−4 and 10^−3 to make inoculating bacterial solutions, respectively.
(§3) Agar media containing 400, 200, 100, 50, 25, 10 and 5 μg/ml of TFM, respectively, were prepared and streaked, about 2 cm long, with a platinum loop each of the above-prepared inoculating bacterial solutions, followed by incubation under the same anaerobic conditions as above at 37° C. for 48-72 hours to evaluate growth of the bacteria.
(§4) Streptococcus sobrinus MT8246, Streptococcus sanuis ST160, Streptococcus mutans Xc and Streptococcus salivarius HHT were likewise incubated in Brain Heart Infusion (Difco) in the same manner as above except that the incubation was conducted in the presence of 5% CO2 to evaluate the growth.

S. sanguis ST160 = experiment: as above; conditions: Brain Heart Infusion, 5% CO2
Experimental: as §2, §3, §4

Streptococcus mutans Xc = experiment: as above; conditions: S. mutans Xc; Brain Heart Infusion, 5% CO2
Experimental: as §2, §3, §4

[19] = test system: Porphyromonas gingivalis W50; experiment: as above; conditions: P. gingivalis W50, anaerobic, 37° C., 48-72 hours
Experimental: as §2, §3

[20] = test system: Porphyromonas gingivalis ATCC33277; experiment: as above; conditions: P. gingivalis ATCC 33277, anaerobic, 37° C., 48-72 hours
Experimental: as §2, §3

[21] = test system: Fusobacterium nucleatum ATCC10953; experiment: as above; conditions: F. nucleatuium ATCC 10953, anaerobic, 37° C., 48-72 hours
Experimental: as §2, §3

[22] = test system: Porphyromonas gingivalis ATCC49417; experiment: as above; conditions: P. gingivalis ATCC 49417, anaerobic, 37° C., 48-72 hours
Experimental: as §2, §3

[23] = test system: Fusobacterium nucleatum ATCC25586; experiment: as above; conditions: F. nucleatuium ATCC 25586, anaerobic, 37° C., 48-72 hours
Experimental: as §2, §3

[24] = test system: Porphyromonas gingivalis W83; experiment: as above; conditions: P. gingivalis W83, anaerobic, 37° C., 48-72 hours
Experimental: as §2, §3

[25] = test system: Actinobacillus actinomycetemcomitans Y4; experiment: as above; conditions: A. actinomycetemcomitans Y4, anaerobic, 37° C., 48-72 hours
Experimental: as §2, §3

## N[C@@H](CCSC(F)(F)F)C(=O)O [TFM, Trifluoromethionine]
[1]
  MIC: >400 µg/mL
[2]
  MIC: >400 µg/mL
[3]
  MIC: >400 µg/mL
[4]
  MIC: >400 µg/mL
[5]
  MIC: >400 µg/mL
[6]
  MIC: >400 µg/mL
[7]
  MIC: >400 µg/mL
[8]
  MIC: 50 µg/mL (≈ 246 µM)
[9]
  MIC: >400 µg/mL
[10]
  MIC: 25 µg/mL (≈ 123 µM)
[11]
  MIC: 100 µg/mL (≈ 492 µM)
[12]
  MIC: >400 µg/mL
[13]
  MIC: >400 µg/mL
[14]
  MIC: >400 µg/mL
[15]
  MIC: >400 µg/mL
[16]
  MIC: >400 µg/mL
[17]
  MIC: >400 µg/mL
[18]
  Minimum growth-inhibiting concentration: >400 µg/mL
S. sanguis ST160
  Minimum growth-inhibiting concentration: >400 µg/mL
Streptococcus mutans Xc
  Minimum growth-inhibiting concentration: >400 µg/mL
[19]
  Minimum growth-inhibiting concentration: 5 µg/mL
[20]
  Minimum growth-inhibiting concentration: 5 µg/mL
[21]
  Minimum growth-inhibiting concentration: 25 µg/mL
[22]
  Minimum growth-inhibiting concentration: 5 µg/mL
[23]
  Minimum growth-inhibiting concentration: 25 µg/mL
[24]
  Minimum growth-inhibiting concentration: 5 µg/mL
[25]
  Minimum growth-inhibiting concentration: 10 µg/mL
